From PubChem BioAssay AID2060617 (Molecular Pharmacology Branch, DTP, NCI, 2025)
Several values for one entry are separate records, joined by “and”; a condition that tells them apart may be missing. Equal entries are not always repeated.

System: 485368-065-R4-J2-PDC spheroids with HUVEC/MSC, viability
Test: Anticancer human tumor 485368-065-R4-J2-PDC patient-derived pancreatic carcinoma cell line growth inhibition [CLK]
Conditions: for viability, T/C: stronger effect = lower value; active means viability on the fitted dose curve at most 10% of control; inactive means the rest
Summary of the method: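 Patient-derived tumor cells grown as complex spheroids with HUVEC endothelial cells and mesenchymal stem cells, treated with drug combinations. Concentrations descend in half-log steps from near clinical Cmax, or from 10 microM if Cmax unknown.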

[1] = curve of first compound, second compound 0.0316 µM
[2] = curve of first compound, second compound 0.1 µM
[3] = curve of first compound, second compound 0.316 µM
[4] = curve of first compound, second compound 1 µM
[5] = curve of first compound, second compound 3.16 µM
[6] = curve of first compound, second compound 10 µM
[7] = second compound 0.0316 µM, first compound 0.0316 µM
[8] = second compound 0.0316 µM, first compound 0.1 µM
[9] = second compound 0.1 µM, first compound 0.0316 µM
[10] = second compound 0.1 µM, first compound 0.1 µM
[11] = second compound 0.316 µM, first compound 0.0316 µM
[12] = second compound 0.316 µM, first compound 0.1 µM
[13] = second compound 1 µM, first compound 0.0316 µM
[14] = second compound 1 µM, first compound 0.1 µM
[15] = second compound 3.16 µM, first compound 0.0316 µM
[16] = second compound 3.16 µM, first compound 0.1 µM
[17] = second compound 10 µM, first compound 0.0316 µM
[18] = second compound 10 µM, first compound 0.1 µM
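Further: spheroids exposed to compounds for seven days.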
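Wherever viability, T/C is given: 100% = DMSO vehicle control wells.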

CC(=O)O[C@H]1C(=O)[C@@]2(C)[C@H]([C@H](OC(=O)c3ccccc3)[C@]3(O)C[C@H](OC(=O)[C@H](O)[C@@H](NC(=O)c4ccccc4)c4ccccc4)C(C)=C1C3(C)C)[C@]1(OC(C)=O)CO[C@@H]1C[C@@H]2O + CN1CCN(c2cc(C(=O)Nc3cc4cc(-c5cnn(C)c5)ccc4cn3)ccn2)CC1
inactive: viability, T/C [7] 49.1% | viability, T/C [8] 41.3% | viability, T/C (second compound 0.0316 µM, first compound 0.316 µM) 38.5% | viability, T/C (second compound 0.0316 µM, first compound 1 µM) 46.2% | viability, T/C (second compound 0.0316 µM, first compound 3.16 µM) 39.5% | viability, T/C (second compound 0.0316 µM, first compound 10 µM) 55.3% | viability, T/C [9] 37.3% | viability, T/C [10] 39.4% | viability, T/C (second compound 0.1 µM, first compound 0.316 µM) 30.8% | viability, T/C (second compound 0.1 µM, first compound 1 µM) 36% | viability, T/C (second compound 0.1 µM, first compound 3.16 µM) 36.8% | viability, T/C (second compound 0.1 µM, first compound 10 µM) 45.2% | viability, T/C [11] 30.7% | viability, T/C [12] 28.5% | viability, T/C (second compound 0.316 µM, first compound 0.316 µM) 28.2% | viability, T/C (second compound 0.316 µM, first compound 1 µM) 25.4% | viability, T/C (second compound 0.316 µM, first compound 3.16 µM) 28.7% | viability, T/C (second compound 0.316 µM, first compound 10 µM) 35.5%
< 31.6 nM: IC50 [1] | IC50 [2] | IC50 [3] | IC50 [4] | IC50 [5] | IC50 [6]
active: viability, T/C [13] 0.77% | viability, T/C [14] 0.76% | viability, T/C (second compound 1 µM, first compound 0.316 µM) 0.7% | viability, T/C (second compound 1 µM, first compound 1 µM) 1.78% | viability, T/C (second compound 1 µM, first compound 3.16 µM) 1% | viability, T/C (second compound 1 µM, first compound 10 µM) 1.89% | viability, T/C [15] 2.34% | viability, T/C [16] 2.46% | viability, T/C (second compound 3.16 µM, first compound 0.316 µM) 1.31% | viability, T/C (second compound 3.16 µM, first compound 1 µM) 2.13% | viability, T/C (second compound 3.16 µM, first compound 3.16 µM) 1.56% | viability, T/C (second compound 3.16 µM, first compound 10 µM) 3.41% | viability, T/C [17] 1.54% | viability, T/C [18] 2.06% | viability, T/C (second compound 10 µM, first compound 0.316 µM) 2.24% | viability, T/C (second compound 10 µM, first compound 1 µM) 1.65% | viability, T/C (second compound 10 µM, first compound 3.16 µM) 2.6% | viability, T/C (second compound 10 µM, first compound 10 µM) 1.89%

CC(C)CC(NC(=O)C(Cc1ccccc1)NC(=O)c1cnccn1)B(O)O (stereo not drawn) + CN1CCN(c2cc(C(=O)Nc3cc4cc(-c5cnn(C)c5)ccc4cn3)ccn2)CC1
2.36 nM: IC50 [3]
6.16 nM: IC50 [2]
inactive: viability, T/C (second compound 0.0316 µM, first compound 0.000949 µM) 93.5% | viability, T/C (second compound 0.0316 µM, first compound 0.003 µM) 118% | viability, T/C (second compound 0.0316 µM, first compound 0.00949 µM) 29.8% | viability, T/C (second compound 0.1 µM, first compound 0.000949 µM) 102% | viability, T/C (second compound 0.1 µM, first compound 0.003 µM) 92.2% | viability, T/C (second compound 0.1 µM, first compound 0.00949 µM) 24.4% | viability, T/C (second compound 0.316 µM, first compound 0.000949 µM) 89.5% | viability, T/C (second compound 0.316 µM, first compound 0.003 µM) 39.8% | viability, T/C (second compound 0.316 µM, first compound 0.00949 µM) 14.8%
active: viability, T/C (second compound 0.0316 µM, first compound 0.03 µM) 14.3% | viability, T/C (second compound 0.0316 µM, first compound 0.0949 µM) 8.25% | viability, T/C (second compound 0.0316 µM, first compound 0.3 µM) 4.1% | viability, T/C (second compound 0.1 µM, first compound 0.03 µM) 14.3% | viability, T/C (second compound 0.1 µM, first compound 0.0949 µM) 7.86% | viability, T/C (second compound 0.1 µM, first compound 0.3 µM) 3.66% | viability, T/C (second compound 0.316 µM, first compound 0.03 µM) 8.49% | viability, T/C (second compound 0.316 µM, first compound 0.0949 µM) 4.29% | viability, T/C (second compound 0.316 µM, first compound 0.3 µM) 2.89% | viability, T/C (second compound 1 µM, first compound 0.000949 µM) 1% | viability, T/C (second compound 1 µM, first compound 0.003 µM) 3.72% | viability, T/C (second compound 1 µM, first compound 0.00949 µM) 2.87% | viability, T/C (second compound 1 µM, first compound 0.03 µM) 1.87% | viability, T/C (second compound 1 µM, first compound 0.0949 µM) 3.57% | viability, T/C (second compound 1 µM, first compound 0.3 µM) 3.73% | viability, T/C (second compound 3.16 µM, first compound 0.000949 µM) 1.35% | viability, T/C (second compound 3.16 µM, first compound 0.003 µM) 4.02% | viability, T/C (second compound 3.16 µM, first compound 0.00949 µM) 3% | viability, T/C (second compound 3.16 µM, first compound 0.03 µM) 3.03% | viability, T/C (second compound 3.16 µM, first compound 0.0949 µM) 3.95% | viability, T/C (second compound 3.16 µM, first compound 0.3 µM) 4.37% | viability, T/C (second compound 10 µM, first compound 0.000949 µM) 1.26% | viability, T/C (second compound 10 µM, first compound 0.003 µM) 3.6% | viability, T/C (second compound 10 µM, first compound 0.00949 µM) 2.94% | viability, T/C (second compound 10 µM, first compound 0.03 µM) 1.87% | viability, T/C (second compound 10 µM, first compound 0.0949 µM) 2.33% | viability, T/C (second compound 10 µM, first compound 0.3 µM) 1.8%
6.99 nM: IC50 [1]
< 0.949 nM: IC50 [4] | IC50 [5] | IC50 [6]

NC(=O)C(=Cn1cnc(-c2cc(C(F)(F)F)cc(C(F)(F)F)c2)n1)c1cncnc1
inactive: viability, T/C (compound 0.00949 µM) 94.3% and 112% | viability, T/C (compound 0.03 µM) 120% and 123% | viability, T/C (compound 0.0949 µM) 176% and 183% | viability, T/C (compound 0.3 µM) 193% and 186% | viability, T/C (compound 0.949 µM) 169% and 182% | viability, T/C (compound 3 µM) 122% and 136%
> 3000 nM: IC50 (curve of compound)

Cn1ncnc1[C@H]1c2n[nH]c(=O)c3cc(F)cc(c23)N[C@@H]1c1ccc(F)cc1 + CN1CCN(c2cc(C(=O)Nc3cc4cc(-c5cnn(C)c5)ccc4cn3)ccn2)CC1
> 100 nM: IC50 [1] | IC50 [2]
88.6 nM: IC50 [3]
inactive: viability, T/C (second compound 0.0316 µM, first compound 0.000316 µM) 99.9% | viability, T/C (second compound 0.0316 µM, first compound 0.001 µM) 107% | viability, T/C (second compound 0.0316 µM, first compound 0.00316 µM) 105% | viability, T/C (second compound 0.0316 µM, first compound 0.01 µM) 105% | viability, T/C [7] 109% | viability, T/C [8] 88.7% | viability, T/C (second compound 0.1 µM, first compound 0.000316 µM) 108% | viability, T/C (second compound 0.1 µM, first compound 0.001 µM) 112% | viability, T/C (second compound 0.1 µM, first compound 0.00316 µM) 119% | viability, T/C (second compound 0.1 µM, first compound 0.01 µM) 109% | viability, T/C [9] 96.6% | viability, T/C [10] 75.9% | viability, T/C (second compound 0.316 µM, first compound 0.000316 µM) 85.2% | viability, T/C (second compound 0.316 µM, first compound 0.001 µM) 87.8% | viability, T/C (second compound 0.316 µM, first compound 0.00316 µM) 84.1% | viability, T/C (second compound 0.316 µM, first compound 0.01 µM) 72.2% | viability, T/C [11] 55.9% | viability, T/C [12] 49.2%
< 0.316 nM: IC50 [4] | IC50 [5] | IC50 [6]
active: viability, T/C (second compound 1 µM, first compound 0.000316 µM) 1.46% | viability, T/C (second compound 1 µM, first compound 0.001 µM) 0.88% | viability, T/C (second compound 1 µM, first compound 0.00316 µM) 1.83% | viability, T/C (second compound 1 µM, first compound 0.01 µM) 0.77% | viability, T/C [13] 1.6% | viability, T/C [14] 1.69% | viability, T/C (second compound 3.16 µM, first compound 0.000316 µM) 1% | viability, T/C (second compound 3.16 µM, first compound 0.001 µM) 1.76% | viability, T/C (second compound 3.16 µM, first compound 0.00316 µM) 0.88% | viability, T/C (second compound 3.16 µM, first compound 0.01 µM) 1.07% | viability, T/C [15] 1.7% | viability, T/C [16] 1.76% | viability, T/C (second compound 10 µM, first compound 0.000316 µM) 2.24% | viability, T/C (second compound 10 µM, first compound 0.001 µM) 1.19% | viability, T/C (second compound 10 µM, first compound 0.00316 µM) 1.54% | viability, T/C (second compound 10 µM, first compound 0.01 µM) 2.1% | viability, T/C [17] 2.02% | viability, T/C [18] 1.77%
